US9994536B2, “Compounds and methods of treating neurological disorders” (TORREY PINES INSTITUTE FOR MOLECULAR STUDIES, priority 2014, dated 2018)

Test system: fibroblasts derived directly from AD patients
Assay: MTT cytotoxicity assay, AD fibroblasts
Assay type: cell-based
Settings: 24 h exposure, human AD fibroblasts
Source text: (4). Toxicity is another crucial limitation for successful drug development as evidenced by recent failure of γ-secretase inhibitors at the clinical trials due to cytotoxicity (Cole, S L and Vassar, R, 2007, Mol. Neurodeg. 2, 22-47; Doody R S, et al. 2013. N. Eng. J. Med. 369, 341-350). Therefore we measured cytotoxicity by very sensitive MTT assay as described previously (Hayes, C D., et al. 2013, BMC Medicine. 26, 11.81; 23; Hayes, C D., et al., 2012, PLoS One 7, e45841) in human primary neurons obtained from a commercial source (cat #1520, ScienCell, Carlsbad, Calif., USA) and fibroblasts derived directly from AD patients (cat #AG06263C, Coriell Institute Cell repository supported by NINDS, NIH). […] We directly used human neurons for toxicity studies so as to reduce the chances of future failure at a later stage due to toxicity.

O=C(Cc1ccccc1)N[C@H](CNc1nc(CN2CCN(C(=O)Cc3ccccc3)CC2)cs1)c1ccccc1 [THPI-244]
lowest concentration with significant cytotoxicity: 50 µM
